Tests used:
[1] = test system: HEK293-pCRE5/SEAP transfectoma; test: Forskolin-induced SEAP production in stable HEK293-pCRE5/SEAP transfectoma, 50 h; format: cell-based, human
Method: Upper Panel A: Stable HEK293-pCRE5/SEAP transfectoma was stimulated with 20 μM forskolin with or without 100 μM IBMX or 200 μM theophylline for 50 h and SEAP activity was then measured on an aliquot of the supernatant (FIG. 7).

[2] = biological target: prostanoid EP2 receptor; test: Transient expression and activation of the EP2 receptor in the HEK293-pCRE5/SEAP transfectoma (SEAP reporter); format: cell-based; conditions: transiently transfected EP2 receptor, PGE2 challenge for 6 hours, SEAP readout; read-out: estimated EC50
Method: Twenty four hours after transfection with a plasmid containing the prostanoid EP2 receptor (closed symbol) or the empty vector (open symbol), the HEK293-pCRE5/SEAP transfectoma was challenged with PGE2 for 6 hours (FIG. 4). The estimated EC50 was below 1 nM of PGE2.

[3] = biological target: T1, prostanoid EP2 receptor (Homo sapiens, UniProt P43116); test: HEK293-pCRE5/SEAP transfectoma stably transfected with EP2 receptor, response to PGE2 with or without IBMX; format: cell-based; conditions: stable EP2 transfectant, 100 μM IBMX vs absence, 6 h
T1 construct: expressed in transfected cells
T1 sequence (P43116 whole entry, species assumed): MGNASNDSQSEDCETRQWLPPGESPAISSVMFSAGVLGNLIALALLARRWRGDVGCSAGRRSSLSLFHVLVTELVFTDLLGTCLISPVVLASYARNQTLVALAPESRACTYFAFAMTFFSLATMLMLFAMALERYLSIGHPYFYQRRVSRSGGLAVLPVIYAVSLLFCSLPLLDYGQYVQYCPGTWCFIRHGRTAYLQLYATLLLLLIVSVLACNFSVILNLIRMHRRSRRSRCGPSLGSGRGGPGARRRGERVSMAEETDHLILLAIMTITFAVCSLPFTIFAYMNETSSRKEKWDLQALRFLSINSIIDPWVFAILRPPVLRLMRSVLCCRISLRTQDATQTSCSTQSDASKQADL
Method: A HEK293-pCRE5/SEAP transfectoma was stably transfected with the prostanoid EP2 receptor and challenged with PGE2 in the absence (empty circles) or presence (closed circles) of 100 μM IBMX for 6 h and SEAP activity determined (FIG. 5). In this case, EC50 was shifted 10-fold to the left.

EC50 [2] [nM]	EC50 shift to the left in presence of IBMX [3] [fold]	Compound	fold-induction of SEAP activity (Panel B, independent experiment) ([1]; 20 μM forskolin with or without 100 μM IBMX) [fold]	fold-induction of SEAP activity (Panel A) ([1]; 20 μM forskolin with or without 100 μM IBMX or 200 μM theophylline) [fold]
–	–	C=C[C@@]1(C)CC(=O)[C@]2(O)[C@@]3(C)[C@@H](O)CCC(C)(C)[C@@H]3[C@H](O)[C@H](OC(C)=O)[C@@]2(C)O1 [forskolin]	198	128
< 1	10	CCCCC[C@H](O)/C=C/[C@H]1[C@H](O)CC(=O)[C@@H]1C/C=C\CCCC(=O)O [PGE2]	–	–
